This test has as its target T1, human 5-HT2A receptor (Homo sapiens, UniProt P28223).
T1 construct: expressed in transfected cells; host or cells: COS7 cells, transient transfection, pCMV vector; crude membranes
The test is described as follows: [125I]DOI radioligand binding assay. Conditions: 0.5 nM [125I]DOI, membranes of COS7 cells transfected with human 5-HT2A receptor. The protocol: Crude membrane pellets were stored at −80° C. until used for radioligand binding assays.

T1 sequence (P28223 whole entry): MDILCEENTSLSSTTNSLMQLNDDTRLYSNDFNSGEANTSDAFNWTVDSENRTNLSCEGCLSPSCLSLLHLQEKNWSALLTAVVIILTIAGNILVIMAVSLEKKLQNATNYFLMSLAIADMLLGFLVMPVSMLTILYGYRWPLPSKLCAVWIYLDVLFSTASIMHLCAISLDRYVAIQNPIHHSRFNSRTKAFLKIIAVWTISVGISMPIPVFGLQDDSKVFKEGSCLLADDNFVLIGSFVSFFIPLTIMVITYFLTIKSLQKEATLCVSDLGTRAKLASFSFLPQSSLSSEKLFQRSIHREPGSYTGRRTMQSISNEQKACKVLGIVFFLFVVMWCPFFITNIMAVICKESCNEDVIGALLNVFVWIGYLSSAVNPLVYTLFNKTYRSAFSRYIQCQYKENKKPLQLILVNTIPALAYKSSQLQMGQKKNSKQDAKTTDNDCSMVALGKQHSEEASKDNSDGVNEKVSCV

As for `CC(C)COC(=O)Nc1ccc(OCCN2CCCC2)c(-c2c(Br)cnn2C)c1` [Compound 23, [3-(4-Bromo-2-methyl-2H-pyrazol-3-yl)-4-(2-pyrrolidin-1-yl-ethoxy)-phenyl]-carbamic acid isobutyl ester], the IC50 (commonly the midpoint of a concentration-inhibition curve) worked out at 1.1 nM. The molecule `Cn1nccc1-c1cc(NC(=O)NCc2ccc(Cl)cc2)ccc1OCCN1CCCCC1` [Compound 45, 1-(4-Chloro-benzyl)-3-[3-(2-methyl-2H-pyrazol-3-yl)-4-(2-piperidin-1-yl-ethoxy)-phenyl]-urea] returned a half-inhibitory concentration (IC50) of 10.2 nM. `Cn1nccc1-c1cc(NC(=O)Cc2ccc(F)cc2)ccc1OCCN1CCOCC1` [Compound 160, 2-(4-Fluoro-phenyl)-N-[3-(2-methyl-2H-pyrazol-3-yl)-4-(2-morpholin-4-yl-ethoxy)-phenyl]-acetamide]: the IC50 is 13.7 nM.

For the origin of these results see patent publication US20070244086A1, “3-Phenyl-Pyrazole Derivatives as Modulators of the 5-Ht2A Serotonin Receptor Useful for the Treatment of Disorders Related Thereto” (Arena Pharmaceuticals, Inc., priority 2004, published 2007).
